The text below walks through data of patent publication US20060003016A1, “Therapeutic method for endolymphatic hydrops associated diseases” (priority 2004, published 2006).

The test system of one assay is guinea pig. Particulars: after administration of AVP; cited from earlier work.
For the next assay, the system named is rats. Particulars: arginine-vasopressin induced rats; cited from earlier work.
For assay [1], the system named is patients with Meniere's disease and endolymphatic hydrops associated diseases. Kind of assay: Clinical course of vertigo, aural fullness, tinnitus and hearing in clinical cases. The class given is in vivo, patient. The text has this:
Therapeutic method of our invention is always performed after general examinations and standard laboratory examinations, such as blood pressure, plasma electrolytes, and urine osmolality. After consideration of body weight, age, sex, and life style, we directed the patients to take adequate water (see below) every day in combination with short-term application with isosorbite®. During the initial stage of the water intake method, recommended volume of water intake for adult male, weighing 60 kg, is calculated as 1.8-2.1 l per day according to the following formula (F 1). […] They seem to be nervous and live under the very strong psychological pressure.
The present invention is explained in detail by mentioning clinical cases.

Setting [2] is: case 3, isosorbide 63 g t.d.s. and difenidol hydrochloride 75 mg t.d.s. together for 6 days, July 28, 2000.
The mark [3] stands for this setting: case 3, isosorbide 63 g t.d.s. and difenidol hydrochloride 75 mg t.d.s. together for 14 days, March 2000.

Where a name gives a salt, the structure may show the parent alone.

Take `NC(=O)CC[C@@H]1NC(=O)[C@H](Cc2ccccc2)NC(=O)[C@H](Cc2ccc(O)cc2)NC(=O)[C@@H](N)CSSC[C@@H](C(=O)N2CCC[C@H]2C(=O)N[C@@H](CCCN=C(N)N)C(=O)NCC(N)=O)NC(=O)[C@H](CC(N)=O)NC1=O` [AVP, arginine vasopressin]: the endolymphatic hydrops result with guinea pig is given as “endolymphatic hydrops was produced”. Further, the “ABR (auditory brainstem evoked response) threshold” value with rats was “increase in ABR (auditory brainstem evoked response) threshold”.
Consider `CCCCC[C@H](O)/C=C/[C@H]1[C@H](O)CC(=O)[C@@H]1CCCCCCC(=O)O` [PGE1, reference compound], for which the “low frequency sensorineural hearing loss of the left ear” value in assay [1] (case 5, steroid, VB12 and vasodilator (prostaglandin:PGE1) together) was “no improvement”.
With `OC(CCCN1CCCCC1)(c1ccccc1)c1ccccc1` [difenidol hydrochloride, reference compound], the left hearing entry was “improved to normal range” in assay [1] (setting [2]) and “improved” in assay [1] (setting [3]).
With `O[C@@H]1CO[C@H]2[C@@H]1OC[C@@H]2O` [isosorbide, reference compound], in assay [1] (case 1, attack of Jan. 24, 2003, isosorbide 63 g t.d.s. with water intake 2 lit./day continued), the “time until rotatory vertigo was improved” value was not above 3 h. Also, in assay [1] (case 1, isosorbide 63 g t.d.s. for one week, reexamination Dec. 6, 2002), the right ear hearing result is “improved to the normal level”. For the same compound, the left hearing result in assay [1] (setting [2]) was “improved to normal range”; in assay [1] (setting [3]), “improved”. The right hearing entry in assay [1] (case 4, isosorbide 63 g t.d.s. orally for 2 weeks) is on record as “no improvement”.
